From PubChem BioAssay AID1918952 (Molecular Pharmacology Branch, DTP, NCI, 2023)
pIC50: −log10 of the molar value. Several values for one entry are separate records, joined by “and”; a condition that tells them apart may be missing. Equal values may be shown once.

System: LG0703-F948-PDC complex spheroid viability
Test: Anticancer human tumor LG0703-F948-PDC patient-derived lung adenocarcinoma cell line growth inhibition
Conditions: for viability, T/C: stronger effect = lower value
Outline: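 Drug combinations with the LSD1 inhibitor iadademstat tested on tumor cells co-cultured as spheroids with endothelial cells and mesenchymal stem cells. Concentrations descended in half-log increments from clinical Cmax or 10 microM.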

[1] = curve of first compound, second compound 0.1 µM
[2] = curve of first compound, second compound 0.316 µM
[3] = curve of first compound, second compound 1 µM
[4] = curve of first compound, second compound 3.16 µM
[5] = curve of first compound, second compound 10 µM
[6] = second compound 0.1 µM, first compound 0.0316 µM
[7] = second compound 0.1 µM, first compound 0.1 µM
[8] = second compound 0.1 µM, first compound 0.316 µM
[9] = second compound 0.1 µM, first compound 1 µM
[10] = second compound 0.1 µM, first compound 3.16 µM
[11] = second compound 0.1 µM, first compound 10 µM
[12] = second compound 0.316 µM, first compound 0.0316 µM
[13] = second compound 0.316 µM, first compound 0.1 µM
[14] = second compound 0.316 µM, first compound 0.316 µM
[15] = second compound 0.316 µM, first compound 1 µM
[16] = second compound 0.316 µM, first compound 3.16 µM
[17] = second compound 0.316 µM, first compound 10 µM
[18] = second compound 1 µM, first compound 0.0316 µM
[19] = second compound 1 µM, first compound 0.1 µM
[20] = second compound 1 µM, first compound 0.316 µM
[21] = second compound 1 µM, first compound 1 µM
[22] = second compound 1 µM, first compound 3.16 µM
[23] = second compound 1 µM, first compound 10 µM
[24] = second compound 3.16 µM, first compound 0.0316 µM
[25] = second compound 3.16 µM, first compound 0.1 µM
[26] = second compound 3.16 µM, first compound 0.316 µM
[27] = second compound 3.16 µM, first compound 1 µM
[28] = second compound 3.16 µM, first compound 3.16 µM
[29] = second compound 3.16 µM, first compound 10 µM
[30] = second compound 10 µM, first compound 0.0316 µM
[31] = second compound 10 µM, first compound 0.1 µM
[32] = second compound 10 µM, first compound 0.316 µM
[33] = second compound 10 µM, first compound 1 µM
[34] = second compound 10 µM, first compound 3.16 µM
[35] = second compound 10 µM, first compound 10 µM
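Further: spheroids exposed to agents for seven days before readout.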
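Wherever viability, T/C is given: 100% = DMSO vehicle control wells as normalization base.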

Row | Structure (SMILES) | pIC50 [1] | pIC50 [2] | pIC50 [3] | pIC50 [4] | pIC50 [5] | viability, T/C [6] [%] | viability, T/C [7] [%] | viability, T/C [8] [%] | viability, T/C [9] [%] | viability, T/C [10] [%] | viability, T/C [11] [%] | viability, T/C [12] [%] | viability, T/C [13] [%] | viability, T/C [14] [%] | viability, T/C [15] [%] | viability, T/C [16] [%] | viability, T/C [17] [%] | viability, T/C [18] [%] | viability, T/C [19] [%] | viability, T/C [20] [%] | also measured
1 | CC(C)c1c(-c2ccccc2)nc2c(C#N)c[nH]n2c1=O + NC1CC1c1ccc(-c2cccc(O)c2)cc1 | < 5.00 | < 5.00 | < 5.00 | < 5.00 | < 5.00 | 107 | 102 | 115 | 94.3 | 110 | 82.7 | 97.5 | 106 | 117 | 108 | 104 | 91.8 | 102 | 109 | 109 | viability, T/C [21]: 109%; viability, T/C [22]: 90.6%; viability, T/C [23]: 69.7%; viability, T/C [24]: 97.7%; viability, T/C [25]: 93.4%; viability, T/C [26]: 92.5%; viability, T/C [27]: 99.8%; viability, T/C [28]: 80.3%; viability, T/C [29]: 82.3%; viability, T/C [30]: 97.9%; viability, T/C [31]: 97.6%; viability, T/C [32]: 94.9%; viability, T/C [33]: 85.3%; viability, T/C [34]: 88.8%; viability, T/C [35]: 74.2%
2 | COc1ccc([C@@H](O)c2cc(-c3ncnc4cc(N5CCOCC5)ccc34)c(F)cc2Cl)nn1 + NC1CCC(NC2CC2c2ccccc2)CC1 | 5.94 | 5.93 | 5.91 | 5.93 | 5.99 | 100 | 97.4 | 88.4 | 54.5 | 17.4 | 3.58 | 92.3 | 110 | 87.3 | 54.8 | 18.7 | 4.54 | 110 | 97.4 | 84 | viability, T/C [21]: 61.8%; viability, T/C [22]: 16.1%; viability, T/C [23]: 3.83%; viability, T/C [24]: 112%; viability, T/C [25]: 95.3%; viability, T/C [26]: 89.6%; viability, T/C [27]: 56.5%; viability, T/C [28]: 16.7%; viability, T/C [29]: 3.27%; viability, T/C [30]: 118%; viability, T/C [31]: 107%; viability, T/C [32]: 92.4%; viability, T/C [33]: 52.2%; viability, T/C [34]: 12.4%; viability, T/C [35]: 3.19%
3 | COc1cc(Nc2ncc3c(n2)-c2ccc(Cl)cc2C(c2c(F)cccc2OC)=NC3)ccc1C(=O)O |  |  |  |  |  |  |  |  |  |  |  |  |  |  |  |  |  |  |  |  | viability, T/C (compound 0.00316 µM): 76.9% and 95.7%; viability, T/C (compound 0.01 µM): 79.1% and 75.3%; viability, T/C (compound 0.0316 µM): 76.3% and 75.3%; viability, T/C (compound 0.1 µM): 67.7% and 64.7%; viability, T/C (compound 0.316 µM): 39.2% and 42.6%; viability, T/C (compound 1 µM): 5.79% and 5.84%; pIC50 (curve of compound): 6.69 and 6.71
